Data as given in patent publication US20060240424A1, “Regulation of human p2y15 g protein-coupled receptor” (priority 2002, published 2006).
“And” between values parts separate entries of the source, which are not always exact repeats. Identical values can stand only once.

Experiments:
P2Y15 [1] = biological target: T1, P2Y15 (Homo sapiens, UniProt Q96P68); assay: Calcium mobilization assay in presence of adenosine receptor antagonists; type: cell-based; set-up: expressed in transfected cells; conditions: for block of calcium mobilization induced by AMP and adenosine: FIG. 4, dose-dependent
Description: (§1) Ligand screening was performed in a Ca^2+ flux assay as follows. Stably transfected P2Y15 GPCR-expressing cells were seeded into 96-well plates and incubated overnight at 37° C. in a tissue culture incubator. The culture medium was aspirated and replaced with […] of loading buffer containing 0.1% BSA, 20 mM HEPES, 1 mM probenecid, 0.01% pluronic F127, and 1 µM Fluo-3-AM (Molecular Probes, Eugene, Oreg.) in HBSS, and incubated for 1 hour at room temperature. The cells were then washed gently 3 times with wash buffer containing 0.1% BSA, 20 mM HEPES, 1 mM probenecid in HBSS. The washed cells were placed in an FDSS6000 functional drug screening system (Hamamatsu Photonics, Hamamatsu, Japan) and changes in cellular fluorescence were measured after adding serial dilutions of potential ligands. A panel of about 130 potential ligands was assembled by selecting known ligands of the GPCRs most closely related to P2Y15 GPCR as well as several naturally occurring chemical relatives of the ligands. The library included various bioactive lipids, eicosanoids, peptides, cannabinoids, chemokines, nucleosides, nucleotides and chemically related substances. The ligands were genereally purchased from either Sigma or R&D Systems.

P2Y15 [2] = biological target: T1, P2Y15; assay: Competitive binding assay on P2Y15 transfectants; set-up: expressed in transfected cells; conditions: 10 μM ^3H-adenosine; FIG. 3D; read-out: Ki for blocking binding of ^3H-adenosine to transfectants
Description: Competitive binding experiments were carried out as follows: 10^5 cells per well in 96-well plates were washed twice for 1 h with DMEM medium. […] After incubating at 4° C. for 16 h, the plates were centrifuged for 10 min at 1500 rpm and then scintillation measured on a TopCount automated scintillation counter. Ki values were determined by non-linear regression using the program Prism (Graph Pad).

P2Y15 [3] = biological target: T1, P2Y15; assay: Cyclic AMP production assay in P2Y15-HEK293 stable transfectants; type: cell-based; set-up: expressed in transfected cells; conditions: for effect of pertussis toxin pretreatment on cyclic AMP production in response to ligand: pretreatment two hours with 1 μM pertussis toxin; for cyclic AMP response to ligand alone: without forskolin
Description: (§2) The cells were then lysed and the cAMP produced was measured by a cAMP-specific ELISA. Concentrations of cAMP produced were calculated by comparing against cAMP standards measured simultaneously.

[4] = test system: nontransfected HEK293 cells; assay: Competitive binding assay on nontransfected HEK293 cells; set-up: species or system human; conditions: for antagonism of ^3H-AMP binding to nontransfected HEK293 cells: 10 μM ^3H-AMP
Description: Competitive binding experiments were carried out as follows: 10^5 cells per well in 96-well plates were washed twice for 1 h with DMEM medium. Then wheatgerm agglutinin SPA beads (Amersham) at 1 mg/well were added, followed 1 h later by 10 μM [^3H]-Adenosine or 10 μM [^3H]-AMP (Amersham), and increasing concentrations of unlabeled ligand in a constant volume of HBS: 10 mM Hepes, 130 mM NaCl, 5 mM KCl, 1 mM MgCl2, 1 mM CaCl2 and 1 g/l glucose (6 μl/well)). After incubating at 4° C. for 16 h, the plates were centrifuged for 10 min at 1500 rpm and then scintillation measured on a TopCount automated scintillation counter. Ki values were determined by non-linear regression using the program Prism (Graph Pad).

P2Y15 GPCR = biological target: T2, P2Y15 GPCR (Homo sapiens, UniProt Q96P68); assay: Ca2+ flux assay (ligand screening) in stably transfected P2Y15 GPCR-expressing HEK293 cells; type: cell-based; conditions: FIG. 2A, read-out: calcium response EC50
T2 construct: expressed in transfected cells
Description: as §1

P2Y15 [5] = biological target: T1, P2Y15; assay: Receptor binding assay (saturation binding) on P2Y15 stable transfectants; conditions: whole cells, 4° C., 16 h; radiolabelled ligand
Description: 10^5 cells per well in 96-well plates were washed twice for 1 h with DMEM medium. […] After incubating at 4° C. for 16 h, the plates were centrifuged for 10 min at 1500 rpm and then scintillation measured on a TopCount automated scintillation counter. Binding of [^32P]-AMP was carried out under the same conditions except that instead of using SPA beads, at the end of the incubation, cells were washed three times by vacuum filtration and 100 μl scintillation fluid was added to the wells.

[6] = test system: nontransfected HEK293 cells; assay: Cyclic AMP production assay in nontransfected HEK293 cells; type: cell-based, human; conditions: 10 μM forskolin
Description: as §2

[7] = test system: nontransfected HEK293 cells; assay: Ca2+ flux assay in nontransfected HEK293 cells (control); type: cell-based, human; conditions: for calcium mobilization in response to nucleotide: both stable transfectants and nontransfected cells (endogenous P2Y1 and P2Y2)
[8] = 10 M AMP (FIG. 4A legend), read-out: Ki for blocking calcium mobilization induced by AMP
[9] = Ki for blocking calcium mobilization induced by adenosine, 10 M adenosine (FIG. 4B legend)

Compound: Cn1c(=O)c2[nH]c(-c3ccccc3)nc2n(C)c1=O [8-phenyltheophylline, 8-Phenyltheophylline]
- Ki (P2Y15 [1]; [8]): 250 nM
- Ki (P2Y15 [1]; [9]): 260 nM

Compound: Nc1ncnc2c1ncn2[C@@H]1O[C@H](COP(=O)(O)O)[C@@H](O)[C@H]1O [AMP, Adenosine 5′-monophosphate]
- Ki (P2Y15 [2]): 24600 nM
- EC50 (P2Y15 [3]; in the presence of 10 μM forskolin, 30 min, FIG. 2B, read-out: generation of cyclic AMP EC50): 214 nM
- effect of pertussis toxin pretreatment on cyclic AMP production in response to ligand (P2Y15 [3]): not affected
- cyclic AMP response to ligand alone (P2Y15 [3]): only minor responses barely above the detection limit
- antagonism of ^3H-AMP binding to nontransfected HEK293 cells [4]: neither AMP nor adenosine can antagonize
- blocking ^3H-adenosine binding to nontransfected HEK293 cells ([4]; 10 μM ^3H-adenosine, FIG. 3D): little effect
- EC50 (P2Y15 GPCR): 920 nM
- Kd (P2Y15 [5]): 18600 nM and 18800 nM
- cyclic AMP generation in nontransfected HEK293 cells [6]: did not respond strongly

Compound: Nc1ncnc2c1ncn2[C@@H]1O[C@H](COP(=O)(O)CP(=O)(O)O)[C@@H](O)[C@H]1O [AMP-CP, Adenosine 5′-(α,β-methylene)diphosphate]
- block of calcium mobilization induced by AMP and adenosine (P2Y15 [1]): effective in blocking

Compound: Nc1ncnc2c1ncn2[C@@H]1O[C@H](COP(=O)(O)OP(=O)(O)OP(=O)(O)O)[C@@H](O)[C@H]1O [ATP]
- calcium mobilization in response to nucleotide [7]: mobilized calcium

Compound: CC(C)Cn1c(=O)n(C)c(=O)c2[nH]cnc21 [IBMX, 3-isobutyl-1 methylxanthine]
- block of calcium mobilization induced by AMP and adenosine (P2Y15 [1]): able to block

Compound: O=c1ccn([C@@H]2O[C@H](COP(=O)(O)OP(=O)(O)OP(=O)(O)O)[C@@H](O)[C@H]2O)c(=O)[nH]1 [UTP]
- calcium mobilization in response to nucleotide [7]: mobilized calcium

Compound: Nc1ncnc2c1ncn2[C@@H]1O[C@H](CO)[C@@H](O)[C@H]1O [adenosine]
- effect of pertussis toxin pretreatment on cyclic AMP production in response to ligand (P2Y15 [3]): not affected
- cyclic AMP response to ligand alone (P2Y15 [3]): only minor responses barely above the detection limit
- antagonism of ^3H-AMP binding to nontransfected HEK293 cells [4]: neither AMP nor adenosine can antagonize
- calcium mobilization response to adenosine in nontransfected cells ([7]; nontransfected HEK293, detected only at very high adenosine concentrations): very weak response
- cyclic AMP generation in nontransfected HEK293 cells [6]: generated cyclic AMP

Compound: Cn1c(=O)c2c(ncn2C)n(C)c1=O [caffeine]
- Ki (P2Y15 [1]; [8]): 2700 nM
- Ki (P2Y15 [1]; [9]): 26200 nM

Compound: Cn1c(=O)c2[nH]cnc2n(C)c1=O [theophylline]
- block of calcium mobilization induced by AMP and adenosine (P2Y15 [1]): able to block
